Assay results reported in patent US20050154046A1, “Methods of treating an inflammatory-related disease” (priority 2004, published 2005).

System: DSS-induced acute ulcerative colitis
Assay: DSS-induced acute ulcerative colitis in Balb/c mice
Format: in vivo
Conditions: 7 days
Text: Materials: […] A suspension of Meisoindigo was freshly prepared in 0.5% sodium methylcellulose and given orally for the animal tests described below. DSS (Dextran Sulfate Sodium salt, molecular weight: 36,000-44,000) was purchased from ICN Biomedicals. Other chemicals used in the following experiments were purchased from Sigma. Pathogen-free female Balb/c mice at 12 weeks of age with body weights from 22 to 25 grams were housed 5 per cage, and given, ad libitum, fresh tap water and commercial rodent pellets. Animal rooms were controlled at 24±2° C. with a relative humidity of 60±5% and a 12 hour light/dark cycle (07:00-19:00 hr). Induction of Acute Ulcerative Colitis DSS-induced colitis in Balb/c Mice: Colitis was induced by DSS in drinking water (MW 36,000-50,000, ICN biochemicals) as described previously (112). Briefly, the mice were randomly divided into 3 groups composed of 10 mice each. In the negative control group (Group 1), mice were given fresh tap water ad libitum and MF pellets, freshly changed twice a week, for 7 days. In the positive control group (DSS group, or Group 2), 5% DSS in tap water was given for 7 days to induce colitis, and the mice were fed with MF pellets. In the DSS-Meisoindigo group (test group or Group 3), mice were given 5% DSS drinking water and given Meisoindigo orally once a day at a dose of 50 mg/kg for 7 consecutive days. Fecal indications of colitis were recorded daily, including body weight and nature of feces (loose and/or bleeding or occult blood). Mice were then sacrificed. Colon tissues were taken, fixed in 10% formalin/PBS, and embedded in paraffin. To minimize physical artifacts, the removed colon was put onto a thick qualitative filter paper without stretching. The colon was then exposed inside out by cutting it longitudinally. The slides were stained with H&E and blindly examined histochemically by 3 technician/pathologists. All data was expressed as a mean±SD.

[1] = 50 mg/kg orally once a day, 5% DSS

CN1C(=O)/C(=C2/C(=O)Nc3ccccc32)c2ccccc21 [Meisoindigo]
reduction of the ulcerations versus positive control group (50 mg/kg orally once a day): 55%
animals with occult blood [1]: 40%
other symptoms such as loose stool [1]: less severe than that of the control group
ulcerative damage of the colon (count under microscope) (50 mg/kg orally, positive control 6.38±2.20): 2.89±1.46
